These results are taken from patent US9983196B2, “Compositions and methods for optimizing drug hydrophobicity and drug delivery to cells” (Bioelastics, Inc., priority 2009, dated 2018).

Data set [1] is described as follows: differential scanning calorimetry of the inverse temperature transition: ΔGHA-based hydrophobicity scale. It counts as physicochemical. The source says:
Described herein is a hydrophobicity scale based on the change in Gibbs free energy of hydrophobic association. Increase in entropy of water drives endothermic phase transition of hydrophobic association. For a narrow phase transition the chemical potential, t, of the molecules in the phase separated, hydrophobically associated state, 1.IHA, and the solution, hydrophobically dissociated state, 1.1HD, are equal. Therefore, at constant temperature and pressure, i.e., at equilibrium, the change in Gibbs free energy for the phase transition is zero, (ΔGt)TP=0 and ΔHT=TtΔSt. For the breadth of the transition of elastic-contractile model proteins [ECMP], it is written: ΔHt≈TtΔSt, (1) i.e., the heat of the transition, ΔHt in kcal/mol, is approximated by the product of the temperature of the transition, Tt in ° K, times the entropy change attending the transition, ΔSt in kcal/° K-mol.
The van der Walls interaction is exothermic for the hydrophobic association attending the ITT, yet the ITT is endothermic. […] The derivation of the change in Gibbs free energy for hydrophobic association, ΔGHA, and evaluation by inverse temperature transition of hydrophobic association has been reported previously (D. W. Urry, The Change in Gibbs Free Energy for Hydrophobic Association Derivation and Evaluation by means of Inverse Temperature Transitions. Chem. Phys. Letters 399 (2004) 177-183.), and is given more simply below. […]
Given the above approximation, but also recognizing that ASt is a calculated result from the differential scanning calorimetric measurement of ΔHt, we define the change in Gibbs free energy for hydrophobic association, ΔGHA, as,
The differential scanning calorimetry (DSC) data of ΔHt(GVGVP) (SEQ ID NO:4) and ΔHt(GVGIP) (SEQ ID NO:8) in FIG. 1 of Luan and Urry, J Phys Chem 95:7896-7900, 1991 provide a specific example of the difference that defines ΔGHA. […] This is the same value of 1.5 kcal/mol-CH2 for the addition of a single CH2 as determined by Butler for the alcohol series.
Once the values are determined by difference with ΔHt(GVGVP) (SEQ ID NO:4) as represented in FIG. 1E, they are translated so the reference polymer is taken as (GGGVP (SEQ ID NO:11), as this residue is considered to be close to neutral, being neither polar nor apolar. For use of (GGGVP) (SEQ ID NO:11) as the reference, i.e., ΔHt(GGGVP) (SEQ ID NO:11)=AHt(ref), in Table 3 and FIG. 13, the change in Gibbs free energy for hydrophobic association is indicated as ΔG^oHA, i.e., […]
In this case most of the ΔG^oHA values have been obtained by taking the experimental Tt, suitably extrapolated to fx=1 to obtain Tt, and reading the value of ΔG^oHA from the sigmoid curve of FIG. 13. […]
(In DSC, transitions show as peaks or steps in heat flow.)

For data set [2] the following is noted: cited from earlier work; for Tt (data within parentheses): microbial preparations of poly(30 mers) (GVGVP GVGVP GχGVP GVGVP GVGVP GVGVP)n, n ≈ 40; for Tt: guest residue χ in poly[fχ(GχGVP),fv(GVGVP)], extrapolated to fχ=1, some cells marked (Tt).
For data set [3] the following is noted: cited from earlier work; for ΔG°HA(GχGVP) (data within parentheses): microbial preparations of poly(30 mers), n ≈ 40.
For data set [4] the following is noted: negatively stained, electron micrograph; cited from earlier work.

As for Glu(COO^−) [E−: Glu(COO^−)], in data set [1] (from Table 1), the “ΔGHA of ionization (neutral versus charged residue)” value is reported as 5.2 kcal/mol-pentamer. Further, the “Tt (data within parentheses)” value in data set [2] was “(218) ° C”. For the same substance, the “ΔG°HA(GχGVP) (data within parentheses)” value in data set [3] is “(+3.72) kcal/mol-pentamer”.

In the case of Ser (PO4^−2), in data set [1], the “contribution to change in Gibbs free energy for hydrophobic association on phosphorylation of Ser” value is on record as “about +8 kcal/mol”. In addition, in data set [2], the Tt is listed as 860 (Tt) ° C. In data set [2] (poly[fV(VPGVG),fX(VPGXG)], 40 mg/ml polymer, 0.15N NaCl, 0.01M phosphate pH 7.4), the “Tt linearly extrapolated to fX = 1” value was 860 °C. Moreover, the “ΔG°HA(GχGVP) (from graph)” value in data set [3] (Tt used to obtain value from experimental sigmoid curve of Tt versus ΔG°HA) was “≈+8.0 (from graph) kcal/mol-pentamer”. Further, the “ΔG°HA from FIG. 13” value in data set [3] (gross estimates (±0.5 kcal/mol) from Tt and curve, 40 mg/ml polymer, 0.15N NaCl, 0.01M phosphate pH 7.4) is recorded as “+8.0 kcal/mol”.

For the substance Lys(NH3+) [K+: Lys(NH3+)], the “ΔGHA of ionization (neutral versus charged residue)” value in data set [1] (from Table 1) is 3.5 kcal/mol-pentamer. For the same substance, the “Tt (data within parentheses)” value in data set [2] was “(104) ° C”. In data set [3], the “ΔG°HA(GχGVP) (data within parentheses)” value is “(+2.94) kcal/mol-pentamer”.

In the case of “(GVGVPGVGFPGEGFPGVGVPGVGFPGFGFP)42 (GVGVP) (GVGVPGVGFPGEGFPGVGVPGVGFPGFGFPGVGVP; repeat (1)..(30) the first 30 residues are repeated 42 times) [ECMP polymer of 253 pentamers forming drug delivery nanoparticles]”, the “nominal size of nanoparticles” value in data set [4] is on record as 50 nm.

With Leu [L: Leu], in data set [1] (from Table 1), the “change on replacement of Val by Leu (single —CH2—)” value is −1.55 kcal/mol-CH2. For the same substance, the Tt in data set [2] was 5 °C. Moreover, the “ΔG°HA(GχGVP)” value in data set [3] (DSC, reference GGGVP = 0) was −4.05 kcal/mol-pentamer.
